Several values for one entry are separate records, joined by “and”; a condition that tells them apart may be missing. Equal values may be shown once. Blank lines part the entries; values can stand above or below the compound they belong to.
Experiments:
[1] = Plasma protein binding, dog; type: in vitro ADME; conditions: for fraction unbound at 4 h, 5 μM: dog, pH 7.4, dog plasma, read-out: PPB % dog (converted)
Description: (§1) Plasma protein binding was determined by equilibrium dialysis using the Pierce Red Device plate with inserts (ThermoScientific). Test compound at 5 μM (0.5% DMSO) spiked in freshly thawed human, rat, mouse, or dog plasma (Bioreclamation INC, Westbury, NY, USA) was dialyzed against phosphate-buffered saline (PBS, pH 7.4) at 37 °C under shaking for 4 h. Aliquots were taken from each side of the well, and matrix matched. Proteins were precipitated with an excess of acetonitrile, samples were mixed and centrifuged, and the supernatant was analyzed by liquid chromatography–mass spectrometry/mass spectrometry (LC–MS/MS). Addition of compound peak areas in the buffer chamber and the plasma chamber was considered to be 100% compound.

[2] = Plasma protein binding, rat; type: in vitro ADME; conditions: pH 7.4, read-out: PPB % rat (converted)
Description: as §1

[3] = Hepatocyte stability, human; type: in vitro ADME; conditions: for CLint scaled at 1 μM: read-out: Hep CLint,u human
Description: (§2) The hepatocyte stability assay was performed by incubation of test compound at 1 μM, 0.03% DMSO in modified Krebs–Henseleit buffer with suspension of pooled cryopreserved hepatocytes (BioIVT, Hicksville, NY, USA) from mouse, rat, dog, or human (BioIVT, Hicksville, NY, USA) at 0.5 million viable hepatocytes/mL. Before adding the hepatocytes (time zero) and after 10, 20, 45, 90, 120, and 180 min of incubation (n = 2) at 37 °C while gently shaking, the reaction was stopped and proteins were precipitated with an excess of acetonitrile containing an internal standard. The samples were mixed, centrifuged, and filtered, and the supernatant was analyzed by liquid chromatography–mass spectrometry/mass spectrometry (LC–MS/MS). The instrument responses (peak areas/IS peak areas) were referenced to the zero-time point samples (considered as 100%) in order to determine the percentage of compound remaining.

[4] = Hepatocyte stability, rat; type: in vitro ADME; conditions: for CLint scaled at 1 μM: read-out: Hep CLint,u rat (converted)
Description: as §2

[5] = PK dog; type: in vivo; conditions: for CLu dog: unbound clearance; for clearance: read-out: CLp dog (converted); for Vd: read-out: Vss dog
Description: These studies were performed with non-naïve male Beagle dogs (age 13.8 months old, origin: Marshall US, North Rose, NY 14516, USA; age 15.8 months old, origin: Harlan; age 17.7 months old, origin: Harlan). Dogs (n = 3) were dosed iv via a 10 min infusion via a catheter with a dose level of 1 mg/kg. After a washout of 3 days, they were dosed orally as a single gavage with a dose level of 5 or 1 mg/kg in PEG400/MC 0.5% or MC 0.5%. Before administration by the po route, animals were fasted for a period of at least 12 h before treatment, and food was given just after the 3 h of blood sampling. All animals had free access to tap water. Blood samples were taken without an anesthetic from a jugular or cephalic vein into tubes containing lithium heparin as an anticoagulant. Blood samples were taken up to 24 h after the start of the infusion. After centrifugation, the resulting plasma samples were assayed by LC-MS/MS with a nongood laboratory practice (non-GLP)-validated method. PK parameters were calculated by noncompartmental analysis using WinNonlin software (Certara, Princeton, NJ, USA).

[6] = target: T1, ΔF508 CFTR (Homo sapiens, UniProt P13569, DEL508-508); assay: TECC (transepithelial clamp circuit) in primary CF-derived HBE cells; type: cell-based; conditions: for Emax / EC50: primary ΔF508 homozygous HBE cells, 24 h incubation, with GLPG2222; for Emax: read-out: TECC HBE with GLPG2222 % max activation; for EC50: read-out: TECC HBE with GLPG2222 EC50
T1 construct: host or cells: CFBE41o- TetON cells, expression induced with doxycycline
T1 sequence (P13569 with tags, fused parts or gaps DEL508-508): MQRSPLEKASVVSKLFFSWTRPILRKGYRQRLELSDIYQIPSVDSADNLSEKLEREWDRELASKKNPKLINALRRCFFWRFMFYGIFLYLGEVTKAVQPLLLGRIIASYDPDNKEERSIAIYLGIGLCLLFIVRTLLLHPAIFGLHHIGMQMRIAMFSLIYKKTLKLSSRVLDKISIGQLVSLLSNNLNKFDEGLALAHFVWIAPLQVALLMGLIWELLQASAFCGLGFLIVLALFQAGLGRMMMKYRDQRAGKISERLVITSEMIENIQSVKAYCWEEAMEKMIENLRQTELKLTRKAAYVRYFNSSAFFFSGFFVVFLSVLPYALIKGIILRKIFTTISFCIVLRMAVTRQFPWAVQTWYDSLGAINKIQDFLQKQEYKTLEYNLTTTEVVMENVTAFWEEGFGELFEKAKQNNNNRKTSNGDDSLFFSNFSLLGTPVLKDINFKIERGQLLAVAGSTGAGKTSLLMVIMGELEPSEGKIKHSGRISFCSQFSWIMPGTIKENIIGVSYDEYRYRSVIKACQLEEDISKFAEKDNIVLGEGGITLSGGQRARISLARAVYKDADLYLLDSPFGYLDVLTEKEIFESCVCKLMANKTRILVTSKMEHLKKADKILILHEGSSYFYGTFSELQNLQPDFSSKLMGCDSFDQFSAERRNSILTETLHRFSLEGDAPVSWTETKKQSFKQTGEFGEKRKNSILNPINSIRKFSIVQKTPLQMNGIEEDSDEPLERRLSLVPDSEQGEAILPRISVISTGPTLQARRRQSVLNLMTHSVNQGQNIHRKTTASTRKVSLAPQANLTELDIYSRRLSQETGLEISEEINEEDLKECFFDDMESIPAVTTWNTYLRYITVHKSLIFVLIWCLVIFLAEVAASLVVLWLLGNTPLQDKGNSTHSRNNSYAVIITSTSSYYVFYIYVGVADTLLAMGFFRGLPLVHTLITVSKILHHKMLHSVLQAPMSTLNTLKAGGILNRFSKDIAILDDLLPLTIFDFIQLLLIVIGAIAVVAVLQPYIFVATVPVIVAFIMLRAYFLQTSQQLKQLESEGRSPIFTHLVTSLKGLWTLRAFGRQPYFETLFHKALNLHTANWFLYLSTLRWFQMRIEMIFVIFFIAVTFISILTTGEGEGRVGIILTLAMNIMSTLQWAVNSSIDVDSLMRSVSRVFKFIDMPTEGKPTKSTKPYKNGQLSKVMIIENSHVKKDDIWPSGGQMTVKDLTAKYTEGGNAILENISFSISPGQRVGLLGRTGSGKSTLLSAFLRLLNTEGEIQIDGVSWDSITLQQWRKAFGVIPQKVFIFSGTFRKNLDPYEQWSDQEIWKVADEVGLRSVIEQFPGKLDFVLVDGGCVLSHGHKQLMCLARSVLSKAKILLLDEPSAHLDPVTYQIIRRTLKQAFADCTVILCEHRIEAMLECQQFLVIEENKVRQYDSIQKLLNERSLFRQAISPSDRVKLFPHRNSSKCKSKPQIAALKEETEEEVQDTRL
Description: Bronchial epithelial cells isolated from the lungs of patients with CF homozygous for the ΔF508 CFTR mutation were obtained from McGill University (Montreal, QC, Canada) or the University of North Carolina (Chapel Hill, NC, United States). Cells were isolated from lungs obtained from donors undergoing planned transplantation. These primary cells were cultured directly on type IV collagen-coated polycarbonate Transwell supports with a diameter of 6.5 mm and pore size of 0.4 μm (Costar, #3397) for 18–25 days in an air–liquid interface, essentially as previously described for TECC.[23]
Twenty-four hours prior to the electrophysiological recording, corrector and/or potentiator compounds were added on both the apical and basolateral sides. TECC recordings were performed by using the TECC instrument developed and sold by EP Design (Bertem, Belgium). During the recording, the epithelial cells were bathed in a NaCl-Ringer solution (120 mM NaCl, 20 mM HEPES, 1.2 mM CaCl2, 1.2 mM MgCl2, 0.8 mM KH2PO4, 0.8 mM K2HPO4, 5 mM glucose, pH 7.4) on both the basolateral (640 μL) and the apical (160 μL) sides and kept at 37 °C. Corrector and potentiator compounds were readded at the same concentration used during the 24 h pretreatment. Apical amiloride was used to inhibit the endogenous ENaC currents (100 μM), while forskolin (10 μM) was applied on both the apical and basolateral sides to stimulate CFTR. Measurements were done during a 20 min time frame with recordings every 2 min. The transepithelial potential and transepithelial resistance were measured in an open circuit and transformed to Ieq using Ohm’s law. The maximal increase in Ieq (ΔIeq, the difference in current before and after forskolin or potentiator treatment) was used as a measure for the increased CFTR activity. EC50 values were generated by measuring the impact of different concentrations of compounds on ΔIeq in primary cells. For this purpose, each transwell was treated with a different compound concentration. CFTRInh-172 was added apically at 10 μM to assess the specificity of the response. Dose response data was fitted using a 3-parameter hill function of the form Response = Bottom + (Top – Bottom)/(1 + (EC50/concentration)) to determine EC50 values. Percentage efficacy was calculated using the following formula: (max response – neg control)/(C1 response – neg control).

[7] = Hepatocyte stability, dog; type: in vitro ADME; conditions: for CLint scaled at 1 μM: read-out: Hep CLint,u dog (converted)
Description: as §2

[8] = Plasma protein binding, human; type: in vitro ADME; conditions: for fraction unbound at 4 h, 5 μM: human, pH 7.4, human plasma, read-out: PPB % human (converted)
Description: as §1

[9] = pooled cryopreserved hepatocytes in suspension
[10] = male, beagle, plasma, 1 mg/kg, iv

PPB % dog ([1]; dog plasma): 98,7%
fraction unbound at 4 h, 5 μM ([1]; plasma): 0.01
fraction unbound at 4 h, 5 μM [2]: 0.015
CLint scaled at 1 μM [3, 9]: < 11 mL/min/kg
CLint scaled at 1 μM [4, 9]: 49 mL/min/kg
CLu dog ([5]; iv): 202 mL/min/kg
half-life at 24 h ([5]; male, beagle, plasma, 0.1 mg/kg, iv, read-out: t1/2 iv dog (converted)): 4.9 h
clearance [5, 10]: 2.67 mL/min/kg
Vd [5, 10]: 0.9 L/kg
Emax [6]: 371%
EC50 [6]: 67 nM
CLint scaled at 1 μM ([7]; pooled cryopreserved hepatocytes in suspension, dog hepatocytes): 31.7 mL/min/kg
PPB % human ([8]; human plasma): 99% and 98.7%
fraction unbound at 4 h, 5 μM ([8]; plasma): 0.02
SMILES: CN(C)S(=O)(=O)NC(=O)c1cc(N2CCC(N3CCOCC3)CC2)c2c(C3CCC3)nn(-c3ccc(F)cc3)c2n1 [Compound 51]

fraction unbound at 4 h, 5 μM ([1]; dog plasma): 0.025
fraction unbound at 4 h, 5 μM ([2]; rat): 0.016
Hepatocyte stability: %LBF human ([3]; human hepatocytes): 22 %LBF
Hepatocyte stability: predicted hepCl human ([3]; human hepatocytes, 1 µM): < 4.67 mL/min/kg
CLint scaled at 1 μM ([3]; human hepatocytes): < 12.8 mL/min/kg
Hepatocyte stability: %LBF rat ([4]; rat hepatocytes): 30 %LBF
Hepatocyte stability: predicted hepCl rat ([4]; rat hepatocytes, 1 µM): 25.5 mL/min/kg
CLint scaled at 1 μM ([4]; rat hepatocytes): 66.2 mL/min/kg
F (%) dog ([5]; 5 mg/kg po): 59.5%
CLu dog ([5]; iv): 178 mL/min/kg
clearance [5, 10]: 3.5 mL/min/kg
Vd [5, 10]: 1.37 L/kg
half-life ([5]; male, beagle, plasma, 1 mg/kg, iv, read-out: t1/2 iv dog (converted)): 5.4 h
increase in F508del CFTR activity ([6]; addition to the combination of potentiator GLPG1837 and C1 corrector 4): 8 fold
Emax [6]: 467%
EC50 [6]: 47 nM
Hepatocyte stability: %LBF dog ([7]; dog hepatocytes): 14 %LBF
Hepatocyte stability: predicted hepCl dog ([7]; dog hepatocytes, 1 µM): < 5.83 mL/min/kg
CLint scaled at 1 μM ([7]; dog, pooled cryopreserved dog hepatocytes in suspension): < 24.8 mL/min/kg
fraction unbound at 4 h, 5 μM ([8]; human plasma): 0.02
SMILES: COC1CCN(C2CCN(c3cc(C(=O)NS(=O)(=O)N(C)C)nc4c3c(C3CCC3)nn4-c3ccc(F)cc3)CC2)CC1 [Compound 52, 3-Cyclobutyl-N-(N,N-dimethylsulfamoyl)-1-(4-fluorophenyl)-4-(4-methoxy-[1,4′-bipiperidin]-1′-yl)-1H-pyrazolo[3,4-b]pyridine-6-carboxamide]
